Legend:
TREK-1 channel = biological target: T1, TREK-1 channel (Homo sapiens, UniProt O95069); test: Whole-cell patch clamp of TREK-1 channel activity in transfected COS-7 cells; type: cell-based; conditions: activation by 10 μM arachidonic acid alone (baseline 31 pA/pF)
T1 construct: expressed in transfected cells; host or cells: COS-7 cells (ATCC CRL-1651), DEAE-dextran transfection
T1 sequence (O95069 1-426): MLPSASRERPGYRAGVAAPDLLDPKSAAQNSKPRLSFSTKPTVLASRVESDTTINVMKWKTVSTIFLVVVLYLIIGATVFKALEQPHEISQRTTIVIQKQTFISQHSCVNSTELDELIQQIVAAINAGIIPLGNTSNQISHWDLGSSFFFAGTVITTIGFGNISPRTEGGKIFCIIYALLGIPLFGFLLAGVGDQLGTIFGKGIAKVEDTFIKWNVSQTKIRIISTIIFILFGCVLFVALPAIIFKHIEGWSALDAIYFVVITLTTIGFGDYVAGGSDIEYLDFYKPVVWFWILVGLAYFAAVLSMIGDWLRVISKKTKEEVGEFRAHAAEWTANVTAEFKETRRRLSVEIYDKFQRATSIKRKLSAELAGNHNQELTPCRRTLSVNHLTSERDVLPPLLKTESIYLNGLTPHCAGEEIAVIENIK
Procedure: All the experiments for measuring the effect of the propeptide were conducted on COS-7 cells (cell line derived from kidney fibroblasts of African green monkey Cercopithecus aethiops). These cells are sown at a density of 20 000 cells/dish with diameter of 35 mm, 24 hours before being transfected by the DEAE-dextran method with 1 μg of pIRES-EGFP-TREK-1 plasmid. Measurements of current were taken 48 to 72 hours after transfection.
Culture of the COS-7 cells. The COS-7 cells (ATCC reference: CRL-1651) are cultivated in DMEM medium (Gibco)/10% fetal calf serum (FCS, ICN), at 37° C. in the presence of 5% CO2.
Transfection using DEAE dextran. On day 1, the COS-7 cells are sown at 20 000 cells per 35-mm diameter dish containing 2 ml of culture medium. On day 2, the medium is removed and the cells are covered with 200 μl of PBS (Gibco) containing 1 μg of pIRES-EGFP-TREK-1 plasmid and 100 μg of DEAE-dextran (Sigma) then placed at 37° C./5% CO2. After incubation for 30 minutes, 2 ml of medium DMEM/10% NuSerum/80 μM chloroquin is added. After 3 hours, the medium is replaced with 2 ml of DMEM/10% FCS and the cells are incubated for 48 to 72 hours before being measured by electrophysiological methods.
Electrophysiological measurements: all the measurements are taken at room temperature, i.e. at 21-22° C. The cells that were transfected by the plasmid are detected from the fluorescence emitted by the EGFP after excitation at 480 nm.
The whole-cell patch clamp technique was used for measuring the activity of the TREK-1 channels. The equipment used is the RK 400 patch-clamp amplifier (Axon Instruments, U.S.A.). The patch pipettes with resistance of 1.3 to 8 MΩ are prepared from capillaries of borosilicate glass and are filled with a solution of 155 mM KCl, 3 mM MgCl2, 5 mM EGTA, 10 mM HEPES/KOH pH 7.2.
The cell culture medium is replaced with a solution of 150 mM NaCl, 5 mM KCl, 3 mM MgCl2, 1 mM CaCl2, 10 HEPES/NaOH pH 7.4 containing 10 mM tetraethyl ammonium chloride, 3 mM of 4-aminopyridin. The cells are perfused continuously with this solution. The rest potential of the membrane of the measured cell is fixed at −80 mV.
The variations in voltage are obtained either with a continuous ramp (from −100 to +50 mV) or by potential jumps of 10 mV (from −100 to +40 mV, 1.5 second per jump).
The data obtained were analyzed with the Pclamp software. The currents described in the appended FIG. 2B were obtained at 0 mV, the results expressed are the mean values±standard deviation. The IC50 value was obtained by plotting the experimental data with a sigmoidal function.
The activity of the channel is then measured by the patch-clamp technique in whole-cell configuration as described above.

mouse (C57Black/J) = test: Conditioned motility suppression test (CMST); type: in vivo; conditions: fluoxetine 3 mg/kg; 30 min after injection
Source text: The inventors conducted three types of behavioral experiments that are regarded as classical for determining the antidepressant activity of a substance (Nestler E. J., Gould E., Manji H., Buncan M., Duman R. S., Greshenfeld H. K., Hen, R. et al. “Preclinical models: status of basic research in depression” Biol Psychiatry. 15, 503-528 (2002) (20) and Cryan, J. & Holmes, A. “The ascent of mouse: advances in modeling human depression and anxiety” Nat Rev Drug Discov. 4, 775-790 (2005) (21)). The effects of the propeptide of the present invention were compared with those of the saline solution in which it is dissolved and with those of fluoxetine, one of the most-used antidepressants in clinical practice. The mouse strain used is C57Black/J strain. TREK-1^−/− mice were also measured in these various tests.
In the next two tests, the propeptide of the present invention was administered by the IV route at a rate of 100 μl at 1 μM per animal.
C. Conditioned Motility Suppression Test (CMST) (see Daugé, V., Sebret, A., Beslot, F., Matsui, T., & Rogues B. “Behavioral profile of CCK2 receptor-deficient mice” Neuropsychopharmacol; 25: 690-698 (2001) (23).
The experiment consists of conditioning the mouse on day 1, and measuring the effects of the substances on day 2.
On day 1, each mouse is placed in a box where the floor is a metal grille connected to an electric stimulator. […]

[1] = system: hippocampus progenitor cells; test: Neurogenesis (BrdU-positive cells) after 4 days of treatment; type: in vivo, mouse; conditions: fluoxetine 3 mg/kg
Source text: In contrast to many antidepressants now commonly used, the efficacy of action of the peptide of the invention is very rapid. […] 93: 3908-3913 (1996) (28) and with a considerable decrease in neurogenesis in the dentate gyrus (Gould, E., Tanapat, P., McEwen, B. S., Flugge, G., Fuchs, E. “Proliferation of granule cell precursors in the dentate gyrus of adult monkeys is diminished by stress” Proc Natl Acad Sci USA, 95: 3168-3171 (1998)) (29).
The experimental protocol is that described in the material and methods (Supplement) of the work of Santarelli et al., “Requirement of hippocampal neurogenesis for the behavioral effects of antidepressants” Science, 301: 805-809 (2003) (24) apart from the duration of treatment, which is four days.
The increase was evaluated using the one-factor ANOVA test followed by the post-hoc test.

Row | Structure (SMILES) | current density at 0 mV (TREK-1 channel) [pA/pF] | motility relative to untreated shocked mice (mouse (C57Black/J)) [times greater] | neurogenesis relative to physiological saline [1]
1 | CCCCC/C=C\C/C=C\C/C=C\C/C=C\CCCC(=O)O [arachidonic acid, reference compound] | 130 |  | 
2 | CNCCC(Oc1ccc(C(F)(F)F)cc1)c1ccccc1 (stereo not drawn) [fluoxetine, reference compound] |  | 5 | identical to that induced by the injection of physiological saline solution

— patent publication US8252748B2, “Peptide derived from neurotensin receptor 3 and use thereof in the treatment of psychiatric diseases” (Centre National de la Recherche Scientifique—CNRS, priority 2007, dated 2012)
